These results are taken from ChEMBL document CHEMBL1255249, “Urine bactericidal activity against Escherichia coli isolates exhibiting different resistance phenotypes/genotypes in an in vitro pharmacodynamic model simulating urine concentrations obtained after oral administration of a 400-milligram single dose of cefditoren-pivoxil” (Antimicrob Agents Chemother, 2008).

In brackets after ≈: the same amount, converted by molar mass. Activity calls are given as the source filed them. The calls are words filed in the database; no cut-off is given here.

By MIC is commonly meant the least concentration at which growth counts as inhibited. One may read the MIC90 as the lowest concentration that inhibits either 90% of growth or 90% of the strains tested, depending on the study. Lower therefore signals higher susceptibility.

Series [1] relates to Escherichia coli. Description: Antimicrobial activity against Escherichia coli S1 expressing penicillinase TEM-1. The series is classed as functional.
Series [2] deals with Escherichia coli. Description: Antimicrobial activity against Escherichia coli S2 expressing penicillinase TEM-1. The series is classed as functional.
Series [3] has as its system Escherichia coli. Description: Antimicrobial activity against Escherichia coli S3 overexpressing penicillinase TEM-1. Type of series: functional.
The test system of series [4] is Escherichia coli. Description: Antimicrobial activity against Escherichia coli S4 expressing inhibitor-resistant TEM-34. Type of series: functional.
Series [5] deals with Escherichia coli. Description: Antimicrobial activity against Escherichia coli S5 expressing extended-spectrum beta-lactamase TEM-116. Type of series: functional.
Series [6] deals with Escherichia coli. Description: Antimicrobial activity against Escherichia coli S6 expressing extended-spectrum beta-lactamase TEM-116 and SHV-12. The series is classed as functional.
The subject of series [7] is Escherichia coli. Description: Antimicrobial activity against Escherichia coli S7 expressing extended-spectrum beta-lactamase SHV-12 and penicillinase TEM-1. The series is classed as functional.
The subject of series [8] is Escherichia coli. Description: Antimicrobial activity against Escherichia coli S7 expressing extended-spectrum beta-lactamase SHV-12 and penicillinase TEM-1 in presence of beta-lactamase inhibitor clavulanic acid. Type of series: functional.
Series [9] relates to Escherichia coli. Description: Antimicrobial activity against Escherichia coli S6 expressing extended-spectrum beta-lactamase TEM-116 and SHV-12 in presence of beta-lactamase inhibitor clavulanic acid. Type of series: functional.
Series [10] concerns Escherichia coli. Description: Antimicrobial activity against Escherichia coli S5 expressing extended-spectrum beta-lactamase TEM-116 in presence of beta-lactamase inhibitor clavulanic acid. Type of series: functional.
The subject of series [11] is Escherichia coli. Description: Antimicrobial activity against Escherichia coli S3 overexpressing penicillinase TEM-1 in presence of beta-lactamase inhibitor clavulanic acid. Type of series: functional.
The test system of series [12] is Escherichia coli. Description: Antimicrobial activity against Escherichia coli S4 expressing inhibitor-resistant TEM-34 in presence of beta-lactamase inhibitor clavulanic acid. The series is classed as functional.
Series [13] relates to Escherichia coli. Description: Antimicrobial activity against Escherichia coli S2 expressing penicillinase TEM-1 in presence of beta-lactamase inhibitor clavulanic acid. The series is classed as functional.
Series [14] deals with Escherichia coli. Description: Antimicrobial activity against Escherichia coli S1 expressing penicillinase TEM-1 in presence of beta-lactamase inhibitor clavulanic acid. Type of series: functional.
Series [15] concerns Homo sapiens. Description: Drug level in human urine at […], po after 8 to 12 hrs. The series is classed as ADME, organism-based. Further details: route oral. As to conditions: in vivo.
Series [16] has as its system Escherichia coli. Description: Antimicrobial activity against Escherichia coli. Type of series: functional.
For series [17], the system named is Homo sapiens. Description: Clearance in human at […], po after 3 hrs. Type of series: ADME, organism-based. Further details: route oral. As to conditions: in vivo.
For series [18], the system named is Homo sapiens. Description: Clearance in human at […], po after 3 hrs to 5 hrs. Further details: route oral. As to conditions: in vivo. Type of series: ADME, organism-based.
Series [19] relates to Homo sapiens. Description: Clearance in human at […], po after 5 hrs to 12 hrs. The series is classed as ADME, organism-based. On the set-up: route oral. As to conditions: in vivo.
Series [20] deals with Escherichia coli. Description: Antimicrobial activity against Escherichia coli S1 expressing penicillinase TEM-1 after 8 hrs. Type of series: functional, organism-based.
In series [21] the test system is Escherichia coli. Description: Antimicrobial activity against Escherichia coli S2 expressing penicillinase TEM-1 after 8 hrs. Type of series: functional, organism-based.
Series [22] has as its system Escherichia coli. Description: Antimicrobial activity against Escherichia coli S3 overexpressing penicillinase TEM-1 after 8 hrs. Type of series: functional, organism-based.
The subject of series [23] is Escherichia coli. Description: Antimicrobial activity against Escherichia coli S4 expressing inhibitor-resistant TEM-34 after 8 hrs. The series is classed as functional, organism-based.
For series [24], the system named is Escherichia coli. Description: Antimicrobial activity against Escherichia coli S5 expressing extended-spectrum beta-lactamase TEM-116 after 8 hrs. The series is classed as functional, organism-based.
Series [25] has as its system Escherichia coli. Description: Antimicrobial activity against Escherichia coli S6 expressing extended-spectrum beta-lactamase TEM-116 and SHV-12 after 8 hrs. Type of series: functional, organism-based.
Series [26] concerns Escherichia coli. Description: Antimicrobial activity against Escherichia coli S7 expressing extended-spectrum beta-lactamase SHV-12 and penicillinase TEM-1 after 8 hrs. The series is classed as functional, organism-based.
Series [27] has as its system Escherichia coli. Description: Antimicrobial activity against Escherichia coli S1 expressing penicillinase TEM-1 after 12 hrs. Type of series: functional, organism-based.
In series [28] the test system is Escherichia coli. Description: Antimicrobial activity against Escherichia coli S2 expressing penicillinase TEM-1after 12 hrs. The series is classed as functional, organism-based.
The subject of series [29] is Escherichia coli. Description: Antimicrobial activity against Escherichia coli S3 overexpressing penicillinase TEM-1after 12 hrs. The series is classed as functional, organism-based.
The subject of series [30] is Escherichia coli. Description: Antimicrobial activity against Escherichia coli S4 expressing inhibitor-resistant TEM-34 after 12 hrs. The series is classed as functional, organism-based.
The test system of series [31] is Escherichia coli. Description: Antimicrobial activity against Escherichia coli S5 expressing extended-spectrum beta-lactamase TEM-116 after 12 hrs. Type of series: functional, organism-based.
The subject of series [32] is Escherichia coli. Description: Antimicrobial activity against Escherichia coli S6 expressing extended-spectrum beta-lactamase TEM-116 and SHV-12 after 12 hrs. The series is classed as functional, organism-based.
For series [33], the system named is Escherichia coli. Description: Antimicrobial activity against Escherichia coli S7 expressing extended-spectrum beta-lactamase SHV-12 and penicillinase TEM-1 after 12 hrs. The series is classed as functional, organism-based.
In series [34] the test system is Escherichia coli. Description: Antimicrobial activity against Escherichia coli S1 expressing penicillinase TEM-1 after 24 hrs. Type of series: functional, organism-based.
In series [35] the test system is Escherichia coli. Description: Antimicrobial activity against Escherichia coli S2 expressing penicillinase TEM-1after 24 hrs. Type of series: functional, organism-based.
For series [36], the system named is Escherichia coli. Description: Antimicrobial activity against Escherichia coli S3 overexpressing penicillinase TEM-1 after 24 hrs. Type of series: functional, organism-based.
The subject of series [37] is Escherichia coli. Description: Antimicrobial activity against Escherichia coli S4 expressing inhibitor-resistant TEM-34 after 24 hrs. Type of series: functional, organism-based.
The test system of series [38] is Escherichia coli. Description: Antimicrobial activity against Escherichia coli S5 expressing extended-spectrum beta-lactamase TEM-116 after 24 hrs. The series is classed as functional, organism-based.
Series [39] relates to Escherichia coli. Description: Antimicrobial activity against Escherichia coli S6 expressing extended-spectrum beta-lactamase TEM-116 and SHV-12 after 24 hrs. The series is classed as functional, organism-based.
Series [40] concerns Escherichia coli. Description: Antimicrobial activity against Escherichia coli S7 expressing extended-spectrum beta-lactamase SHV-12 and penicillinase TEM-1 after 24 hrs. Type of series: functional, organism-based.
Series [41] concerns Escherichia coli. Description: Antimicrobial activity against Escherichia coli S1 expressing penicillinase TEM-1 assessed as log reduction in bacterial count after 4 to 24 hrs in presence of magnesium ions. Type of series: functional.
Series [42] deals with Escherichia coli. Description: Antimicrobial activity against Escherichia coli S2 expressing penicillinase TEM-1 assessed as log reduction in bacterial count after 4 to 24 hrs in presence of magnesium ions. The series is classed as functional.
Series [43] relates to Escherichia coli. Description: Antimicrobial activity against Escherichia coli S4 expressing inhibitor-resistant TEM-34 assessed as log reduction in bacterial count upto 8 hrs. The series is classed as functional.
Series [44] relates to Escherichia coli. Description: Antimicrobial activity against Escherichia coli S3 overexpressing penicillinase TEM-1 assessed as log reduction in bacterial count upto 8 hrs. Type of series: functional.
For series [45], the system named is Escherichia coli. Description: Antimicrobial activity against Escherichia coli S1 expressing penicillinase TEM-1 assessed as log reduction in bacterial count after 4 to 24 hrs in presence of calcium ions. Type of series: functional.
For series [46], the system named is Escherichia coli. Description: Antimicrobial activity against Escherichia coli S2 expressing penicillinase TEM-1 assessed as log reduction in bacterial count after 4 to 24 hrs in presence of calcium ions. Type of series: functional.
Series [47] deals with Escherichia coli. Description: Antimicrobial activity against Escherichia coli S2 expressing penicillinase TEM-1 assessed as log reduction in bacterial count upto 8 hrs. The series is classed as functional.
The subject of series [48] is Escherichia coli. Description: Antimicrobial activity against Escherichia coli S1 expressing penicillinase TEM-1 assessed as log reduction in bacterial count upto 8 hrs. The series is classed as functional.
The test system of series [49] is Escherichia coli. Description: Antimicrobial activity against Escherichia coli S5 expressing extended-spectrum beta-lactamase TEM-116 assessed as log reduction in bacterial count from 3 to 24 hrs. The series is classed as functional.
For series [50], the system named is Escherichia coli. Description: Antimicrobial activity against Escherichia coli S5 expressing extended-spectrum beta-lactamase TEM-116 assessed as log reduction in bacterial count upto 8 hrs. Type of series: functional.
The subject of series [51] is Escherichia coli. Description: Antimicrobial activity against Escherichia coli S6 expressing extended-spectrum beta-lactamase TEM-116 and SHV-12assessed as log reduction in bacterial count upto 8 hrs. The series is classed as functional.

As for `CO/N=C(\C(=O)N[C@@H]1C(=O)N2C(C(=O)O)=C(COC(N)=O)CS[C@H]12)c1ccco1` [CEFUROXIME], the minimal inhibitory concentration (MIC) in the series with Escherichia coli [1] was 4 µg/mL (≈ 9.43 µM); in the series on Escherichia coli [2] it was 4 µg/mL (≈ 9.43 µM); with Escherichia coli [3], 8 µg/mL (≈ 18.9 µM); in the series with Escherichia coli [4], 4 µg/mL (≈ 9.43 µM); with Escherichia coli [5], 32 µg/mL (≈ 75.4 µM); with Escherichia coli [6], > 128 µg/mL. In the series with Escherichia coli [7], this compound returned a minimal inhibitory concentration (MIC) of 32 µg/mL (≈ 75.4 µM).
For `CC1(C)S[C@@H]2[C@H](NC(=O)[C@H](N)c3ccc(O)cc3)C(=O)N2[C@H]1C(=O)O` [AMOXICILLIN], the MIC was found to be 8 µg/mL (≈ 21.9 µM) against Escherichia coli [1]; 4 µg/mL (≈ 10.9 µM) with Escherichia coli [2]; 32 µg/mL (≈ 87.6 µM) against Escherichia coli [3]; 32 µg/mL (≈ 87.6 µM) in the series on Escherichia coli [4]; 4 µg/mL (≈ 10.9 µM) against Escherichia coli [5]; 8 µg/mL (≈ 21.9 µM) against Escherichia coli [6]. The minimum inhibitory concentration (MIC) against Escherichia coli [7] worked out at 16 µg/mL (≈ 43.8 µM); with Escherichia coli [8], 8 µg/mL; with Escherichia coli [9], 4 µg/mL; in the series on Escherichia coli [10] it was 2 µg/mL; with Escherichia coli [11], 16 µg/mL; with Escherichia coli [12] it was 16 µg/mL. For the same compound, the minimal inhibitory concentration (MIC) was 2 µg/mL with Escherichia coli [13] and 4 µg/mL in the series with Escherichia coli [14].
In the series on Homo sapiens [15], `CO/N=C(\C(=O)N[C@@H]1C(=O)N2C(C(=O)OCOC(=O)C(C)(C)C)=C(/C=C\c3scnc3C)CS[C@H]12)c1csc(N)n1` [CEFDITOREN PIVOXIL] yielded a Drug uptake of 12.7 µg/mL. For the same compound, the MIC90 in the series on Escherichia coli [16] turned out to be 0.5 µg/mL (≈ 0.805 µM). Further, the MIC amounted to 0.25 µg/mL (≈ 0.403 µM) against Escherichia coli [1]; 1 µg/mL (≈ 1.61 µM) in the series on Escherichia coli [2]; 1 µg/mL (≈ 1.61 µM) against Escherichia coli [3]; 2 µg/mL (≈ 3.22 µM) against Escherichia coli [4]; 0.5 µg/mL (≈ 0.805 µM) against Escherichia coli [5]; 8 µg/mL (≈ 12.9 µM) in the series with Escherichia coli [6]. In the series on Escherichia coli [7], 16 µg/mL (≈ 25.8 µM) was the least that counted as inhibitory (MIC). Moreover, the figures for the CL in the series with Homo sapiens [17], in the series with Homo sapiens [18] and in the series with Homo sapiens [19] were 0.86 mL/min, 2.88 mL/min and 3.04 mL/min, respectively. Moreover, the outcome with Escherichia coli [20], in the series with Escherichia coli [21], in the series with Escherichia coli [22], in the series on Escherichia coli [23], in the series with Escherichia coli [24] and in the series with Escherichia coli [27] was Active. The result in the series with Escherichia coli [28], in the series with Escherichia coli [29], in the series on Escherichia coli [30], with Escherichia coli [34], with Escherichia coli [35] and with Escherichia coli [36] was Active. The outcome with Escherichia coli [37] was Active. The result with Escherichia coli [25], with Escherichia coli [26], in the series with Escherichia coli [31], in the series on Escherichia coli [32], in the series on Escherichia coli [33] and in the series with Escherichia coli [38] was inactive. Besides, the result in the series on Escherichia coli [39] and with Escherichia coli [40] was inactive. The FC is >4 with Escherichia coli [41]; >4 in the series with Escherichia coli [42]; “>=6” with Escherichia coli [43]; “>=5” with Escherichia coli [44]; >4 in the series on Escherichia coli [45]; >4 with Escherichia coli [46]. Moreover, the FC entry with Escherichia coli [47] was “>=4”; in the series with Escherichia coli [48] it was “>=3”; with Escherichia coli [49] it was “>=3”; in the series with Escherichia coli [50], “>=7”; with Escherichia coli [51], “>=8”.
`O=C(O)c1cn(C2CC2)c2cc(N3CCNCC3)c(F)cc2c1=O` [CIPROFLOXACIN]: the MIC was 0.007 µg/mL (≈ 0.0211 µM) with Escherichia coli [1], > 32 µg/mL against Escherichia coli [2] and > 32 µg/mL against Escherichia coli [7].
